Measured values as given in US11780827B2, “Substituted 3-phenoxyazetidin-1-yl-pyrazines” (Boehringer Ingelheim International GmbH, priority 2020, dated 2023).

molecular target: T1, human GPR52 (Homo sapiens, UniProt Q9Y2T5); experiment: HTRF assay for direct cAMP measurement; format: cell-based; conditions: CHO-K1 cells stably expressing recombinant human GPR52, mean EC50
T1 construct: expressed in transfected cells; host or cells: CHO-K1
Description: Homogeneous Time-Resolved Fluorescence (HTRF) Assay for Direct cAMP Measurement.
HTRF cAMP assays were performed using commercially available assay kits according to the manufacturer's instructions (cAMP Dynamic 2 Assay Kit; #62AM4PEJ, Cisbio Bioassays, Bedford, Mass.). An aliquot of CHO-K1 cells stably expressing recombinant human GPR52 is thawed and resuspended in cell buffer (1×PBS (w/o Ca^2+/Mg^2+)) at a density of 4×10^5 cells per mL Test compounds were solubilized in DMSO to 10 mM stock solutions and serially diluted in DMSO using 6-fold dilutions to generate 8-point dose response curves. These serially diluted samples were then diluted 1:50 in compound dilution buffer (1×PBS (w/o Ca^2+/Mg^2+) containing 0.5 mM IBMX, 0.1% BSA) to achieve a 4× stock. The diluted compounds were transferred (5 μL per well) in duplicate to the 384-well assay plate (Optiplate #6007290, PerkinElmer, Waltham, Mass.). Both a positive (reference compound) and negative (non-stimulated vehicle) control are included in each assay run in column 23. The cell suspension was subsequently dispensed into the 384-well assay plates at 15 μL per well (6000 cells) such that the compound was diluted to 1×. […] After a one-hour incubation at room temperature, 10 μL of cAMP D2 reagent followed by 10 μL of cryptate reagent (provided in the Cisbio kit) was added to each well. Plates were then incubated at room temperature for one hour prior to reading. Time-resolved fluorescence measurements were collected on an EnVision® HTRF plate reader (PerkinElmer, Waltham, Mass.). Counts from the plate reader were fit to the cAMP standard curve included on each plate to determine the amount of cAMP in each test well. The % control was calculated based on the positive control set at […]. Dose-response curves were generated from the cAMP data and analyzed using a nonlinear least squares curve-fitting program to obtain EC50 values.

T1 sequence (Q9Y2T5 whole entry): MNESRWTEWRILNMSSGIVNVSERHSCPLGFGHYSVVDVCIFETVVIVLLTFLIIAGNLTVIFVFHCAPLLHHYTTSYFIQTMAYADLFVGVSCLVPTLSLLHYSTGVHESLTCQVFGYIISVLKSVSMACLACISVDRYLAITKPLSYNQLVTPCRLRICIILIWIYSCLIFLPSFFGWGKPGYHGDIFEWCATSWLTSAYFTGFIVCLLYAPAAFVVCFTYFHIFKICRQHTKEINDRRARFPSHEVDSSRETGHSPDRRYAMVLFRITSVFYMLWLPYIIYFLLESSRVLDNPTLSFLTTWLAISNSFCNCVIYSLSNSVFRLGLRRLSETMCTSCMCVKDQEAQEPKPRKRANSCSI

EC50	Structure (SMILES)
9 nM	O=C(Nc1ccnnc1)c1nccnc1N1CC(Oc2cc(F)cc(C(F)(F)F)c2)C1 [Example 1]
9 nM	O=C(Nc1ccnnc1)c1nccnc1N1CC(Oc2cc(F)cc(Cl)c2)C1 [Example 2]
19 nM	O=C(Nc1ccnnc1)c1nccnc1N1CC(Oc2cc(F)cc(F)c2)C1 [Example 3]
5 nM	O=C(Nc1ccnnc1)c1nccnc1N1CC(Oc2cc(F)c(F)c(F)c2)C1 [Example 4]
10 nM	O=C(Nc1ccnnc1)c1nccnc1N1CC(Oc2ccc(F)c(F)c2)C1 [Example 5]
6 nM	O=C(Nc1ccnnc1)c1nccnc1N1CC(Oc2cc(F)cc(C(F)F)c2)C1 [Example 6]
10 nM	O=C(Nc1ccnnc1)c1nccnc1N1CC(Oc2ccc(F)c(Cl)c2)C1 [Example 7]
4 nM	O=C(Nc1ccnnc1)c1nccnc1N1CC(Oc2cc(F)c(F)c(Cl)c2)C1 [Example 8]
14 nM	Cc1cc(NC(=O)c2nccnc2N2CC(Oc3cc(F)cc(C(F)(F)F)c3)C2)cnn1 [Example 9]
4 nM	Cc1cc(NC(=O)c2nccnc2N2CC(Oc3cc(F)cc(Cl)c3)C2)cnn1 [Example 10]
4 nM	Cc1cc(NC(=O)c2nccnc2N2CC(Oc3ccc(F)c(Cl)c3)C2)cnn1 [Example 16]
4 nM	Cc1cc(NC(=O)c2nccnc2N2CC(Oc3ccc(F)c(Cl)c3)C2)ncn1 [Example 25]
6 nM	Cc1cc(NC(=O)c2nccnc2N2CC(Oc3cc(F)c(F)c(F)c3)C2)ncn1 [Example 26]
11 nM	Cc1cc(NC(=O)c2nccnc2N2CC(Oc3cc(F)cc(C(F)F)c3)C2)ncn1 [Example 27]
12 nM	Cc1cc(NC(=O)c2nccnc2N2CC(Oc3cc(F)cc(F)c3)C2)ncn1 [Example 28]
8 nM	Cc1cc(NC(=O)c2nccnc2N2CC(Oc3cc(F)cc(Cl)c3)C2)ncn1 [Example 30]
17 nM	Cc1cc(NC(=O)c2nccnc2N2CC(Oc3cc(F)cc(C(F)(F)F)c3)C2)ncn1 [Example 31]
8 nM	Cc1cc(NC(=O)c2nccnc2N2CC(Oc3cc(F)c(F)c(Cl)c3)C2)ncn1 [Example 32]
10 nM	CCc1cc(NC(=O)c2nccnc2N2CC(Oc3cc(F)cc(F)c3)C2)ncn1 [Example 33]
30 nM	CCc1cc(NC(=O)c2nccnc2N2CC(Oc3cc(F)cc(C(F)(F)F)c3)C2)ncn1 [Example 34]
8 nM	CCc1cc(NC(=O)c2nccnc2N2CC(Oc3cc(F)cc(Cl)c3)C2)ncn1 [Example 35]
6 nM	CCc1cc(NC(=O)c2nccnc2N2CC(Oc3cc(F)c(F)c(F)c3)C2)ncn1 [Example 36]
9 nM	CCc1cc(NC(=O)c2nccnc2N2CC(Oc3cc(F)c(F)c(Cl)c3)C2)ncn1 [Example 38]
12 nM	CCc1cc(NC(=O)c2nccnc2N2CC(Oc3cc(F)cc(C(F)F)c3)C2)ncn1 [Example 39]
5 nM	CCc1cc(NC(=O)c2nccnc2N2CC(Oc3ccc(F)c(Cl)c3)C2)ncn1 [Example 40]
12 nM	O=C(Nc1ccncn1)c1nccnc1N1CC(Oc2cc(F)c(F)c(Cl)c2)C1 [Example 41]
23 nM	O=C(Nc1ccncn1)c1nccnc1N1CC(Oc2cc(F)c(F)c(F)c2)C1 [Example 42]
37 nM	O=C(Nc1ccncn1)c1nccnc1N1CC(Oc2ccc(F)c(Cl)c2)C1 [Example 44]
14 nM	O=C(Nc1cc(C(F)(F)F)ncn1)c1nccnc1N1CC(Oc2ccc(F)c(Cl)c2)C1 [Example 45]

Structure (SMILES)	EC50
CCc1cc(NC(=O)c2nccnc2N2CC(Oc3cc(F)cc(C(F)(F)F)c3)C2)cnn1 [Example 17]	11 nM
CCc1cc(NC(=O)c2nccnc2N2CC(Oc3cc(F)cc(Cl)c3)C2)cnn1 [Example 18]	6 nM
CCc1cc(NC(=O)c2nccnc2N2CC(Oc3ccc(F)c(Cl)c3)C2)cnn1 [Example 19]	4 nM
CCc1cc(NC(=O)c2nccnc2N2CC(Oc3cc(F)c(F)c(F)c3)C2)cnn1 [Example 20]	5 nM
CCc1cc(NC(=O)c2nccnc2N2CC(Oc3cc(F)cc(C(F)F)c3)C2)cnn1 [Example 22]	7 nM
CCc1cc(NC(=O)c2nccnc2N2CC(Oc3cc(F)c(F)c(Cl)c3)C2)cnn1 [Example 23]	6 nM
CCc1cc(NC(=O)c2nccnc2N2CC(Oc3cc(F)cc(F)c3)C2)cnn1 [Example 24]	6 nM
CCc1cc(NC(=O)c2nccnc2N2CC(Oc3ccc(F)c(F)c3)C2)ncn1 [Example 37]	3 nM
O=C(Nc1ccncn1)c1nccnc1N1CC(Oc2ccc(F)c(F)c2)C1 [Example 43]	45 nM
O=C(Nc1cc(C(F)(F)F)ncn1)c1nccnc1N1CC(Oc2ccc(F)c(F)c2)C1 [Example 46]	7 nM

molecular target: T2, aldehyde oxidase (Homo sapiens, UniProt Q06278); experiment: In vitro metabolite profiling in primary human hepatocytes with or without hydralazine; format: in vitro ADME; conditions: 1 μM test compound
T2 construct: endogenous in cells; host or cells: cryopreserved primary human hepatocytes
T2 sequence (Q06278 1-1338): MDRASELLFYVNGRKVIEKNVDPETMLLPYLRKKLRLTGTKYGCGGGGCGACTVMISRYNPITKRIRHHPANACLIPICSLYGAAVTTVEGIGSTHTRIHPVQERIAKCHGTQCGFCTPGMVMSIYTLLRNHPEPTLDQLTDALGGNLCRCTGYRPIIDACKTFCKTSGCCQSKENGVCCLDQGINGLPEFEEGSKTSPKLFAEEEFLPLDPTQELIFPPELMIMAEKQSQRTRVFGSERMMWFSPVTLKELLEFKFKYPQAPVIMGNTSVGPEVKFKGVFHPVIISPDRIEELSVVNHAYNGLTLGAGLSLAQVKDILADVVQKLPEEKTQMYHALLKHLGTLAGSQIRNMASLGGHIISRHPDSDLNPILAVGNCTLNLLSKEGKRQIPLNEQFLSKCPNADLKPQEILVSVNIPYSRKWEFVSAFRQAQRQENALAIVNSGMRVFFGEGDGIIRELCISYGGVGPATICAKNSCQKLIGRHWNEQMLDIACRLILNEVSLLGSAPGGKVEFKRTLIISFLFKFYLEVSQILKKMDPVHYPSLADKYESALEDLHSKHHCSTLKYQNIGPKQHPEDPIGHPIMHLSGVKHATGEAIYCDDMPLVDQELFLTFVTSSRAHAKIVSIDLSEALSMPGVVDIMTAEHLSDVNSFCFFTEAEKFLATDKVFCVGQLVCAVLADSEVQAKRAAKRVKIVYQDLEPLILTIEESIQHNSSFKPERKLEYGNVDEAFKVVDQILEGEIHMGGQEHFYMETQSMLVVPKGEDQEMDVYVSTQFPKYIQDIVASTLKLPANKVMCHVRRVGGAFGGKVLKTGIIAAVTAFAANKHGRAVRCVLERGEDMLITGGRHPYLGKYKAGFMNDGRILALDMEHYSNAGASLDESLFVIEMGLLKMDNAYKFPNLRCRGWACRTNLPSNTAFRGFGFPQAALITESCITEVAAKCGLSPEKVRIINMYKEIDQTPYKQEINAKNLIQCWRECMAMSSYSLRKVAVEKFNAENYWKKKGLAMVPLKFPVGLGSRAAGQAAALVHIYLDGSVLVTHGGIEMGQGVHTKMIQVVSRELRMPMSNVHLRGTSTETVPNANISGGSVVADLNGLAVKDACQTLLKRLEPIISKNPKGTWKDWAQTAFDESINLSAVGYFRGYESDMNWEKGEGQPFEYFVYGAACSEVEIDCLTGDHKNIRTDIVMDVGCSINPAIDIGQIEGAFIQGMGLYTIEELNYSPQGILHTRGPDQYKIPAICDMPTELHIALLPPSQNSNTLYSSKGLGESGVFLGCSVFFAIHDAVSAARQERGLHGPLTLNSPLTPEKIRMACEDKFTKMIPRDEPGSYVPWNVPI
Description: (§1) In vitro metabolite profiling to evaluate the involvement of aldehyde oxidase in addition to CYP-mediated metabolic pathways is based on the semiquantitative analysis of the formation of oxygenated metabolites in primary human hepatocytes and the reduction in their formation in presence of the specific aldehyde oxidase inhibitor hydralazine. If respective hydralazine-inhibitable metabolites are also formed in human liver cytosol incubations in the absence of any cofactors, involvement of aldehyde oxidase in the metabolism of the respective compound is considered likely.
The involvement of aldehyde oxidase in metabolic transformation of the test compound is investigated using primary human hepatocytes in suspension in presence or absence of the specific aldehyde oxidase inhibitor hydralazine. After recovery from cryopreservation, human hepatocytes are incubated in Dulbecco's modified eagle medium supplemented with 3.5 μg glucagon/500 ml, 2.5 mg insulin/500 ml and 3.75 mg/500 ml hydrocortisone) containing 5% human serum.
Following a 30 min preincubation in a cell culture incubator (37° C., 10% CO2) with or without 50 μM hydralazine, test compound solution is spiked into the hepatocyte suspension to obtain a final cell density of 1.0*10^6 to 4.0*10^6 cells/mi (depending on the metabolic turnover rate of the compound observed with primary human hepatocytes), a final test compound concentration of 1 μM, and a final DMSO concentration of 0.05%.
The cells are incubated for six hours (incubator, horizontal shaker) and samples are removed from the incubation after 0, 0.5, 1, 2, 4 or 6 hours, depending on the metabolic turnover rate. Samples are quenched with acetonitrile and pelleted by centrifugation. The supernatant is transferred to a 96-deepwell plate, evaporated under nitrogen and resuspended prior to bioanalysis by liquid chromatography-high resolution mass spectrometry for identification of putative metabolites.

% Parent of drug-related material	Structure (SMILES)
94%	O=C(Nc1ccnnc1)c1nccnc1N1CC(Oc2cc(F)c(F)c(F)c2)C1 [Example 4]
91%	Cc1cc(NC(=O)c2nccnc2N2CC(Oc3cc(F)cc(Cl)c3)C2)cnn1 [Example 10]

same assay, conditions: sum of AO-formed metabolites

Contribution of AO to oxidative metabolism	Structure (SMILES)
53%	O=C(Nc1ccnnc1)c1nccnc1N1CC(Oc2cc(F)c(F)c(F)c2)C1 [Example 4]
22%	Cc1cc(NC(=O)c2nccnc2N2CC(Oc3cc(F)cc(Cl)c3)C2)cnn1 [Example 10]

molecular target: T2, aldehyde oxidase; experiment: Metabolite formation in pooled human liver cytosol incubations without cofactors; format: in vitro ADME; set-up: key: yes: Metabolite is formed in presence of human liver cytosol in the absence of cofactors as indication of aldehyde oxidase mediated metabolism; Metabolite is not detected in cytosol incubations; conditions: human liver cytosol 5 mg/ml, 10 μM test compound, 60 min, metabolite of the same line
Description: as §1
The involvement of aldehyde oxidase in the metabolic transformation of the test compound is confirmed at 37° C. with pooled human liver cytosol fractions. The incubations, conducted at a final incubation volume of 60 μl per time point, are composed of phosphate buffer (100 mM, pH 7.4), magnesium chloride (5 mM), and human liver cytosol (5 mg/ml). Following a short preincubation period at 37° C., the reactions are initiated by addition of the test compound, resulting in a final concentration of 10 μM. After 0 and 60 minutes, the incubations are terminated by transferring an aliquot into organic solvent, followed by centrifugation (10000 g, 5 min). The resulting supernatant is used for bioanalysis by liquid chromatography-high resolution mass spectrometry for identification of putative metabolites.

Formation in human liver cytosol incubations [yes/no]	Structure (SMILES)
yes	O=C(Nc1ccnnc1)c1nccnc1N1CC(Oc2cc(F)c(F)c(F)c2)C1 [Example 4]
yes	Cc1cc(NC(=O)c2nccnc2N2CC(Oc3cc(F)cc(Cl)c3)C2)cnn1 [Example 10]
